Experimental data reported in US11026944B2, “Compositions and methods for treating insomnia” (Eisai R&D Management Co., Ltd., priority 2014, dated 2021).
Where two headings read alike, the source gives them in different places.

Assay: Crossover study of relative bioavailability of tablet versus capsule (005 Study): plasma PK
Format: in vivo, human
Settings: for Tmax / concentration at 8 h / AUC(0-t) / AUC(0-inf) / Cmax / half-life: human, plasma; for concentration at 8 h: plasma at 8 h, read-out: C8 Mean(SD); for AUC(0-inf): read-out: AUC(0-inf) Mean(SD); for Cmax: read-out: Cmax Mean(SD); for half-life: read-out: t1/2 Mean(SD) (converted)
Description: Single-center, open-label, randomized crossover study was conducted to evaluate, in healthy adult subjects, the bioavailability of single solid oral doses of compound A in tablet formulation relative to single oral doses of compound A in capsule formulation at 2.5, 10, and 25 mg. Another objective of the study was to evaluate the safety and tolerability of tablet formulations of compound A at 2.5, 10, and 25 mg in healthy adult subjects. Approximately 36 subjects were randomly assigned to one of three cohorts (approximately 12 subjects per cohort) and received both a single dose of compound A as a capsule formulation and a single dose of compound A as a tablet formulation, in random sequence, in a 1:1 ratio. The doses were 2.5 mg, 10 mg, and 25 mg.
The study had two phases: Prerandomization and Randomization. The Prerandomization Phase lasted for up to 21 days and included a Screening Period and Baseline Period A, during which eligibility was established and baseline assessments before dosing of the first formulation occurred. The Randomization Phase consisted of two Treatment Periods (A and B), separated by Baseline Period B. On the first day of Treatment Period A, subjects received a single oral dose of the first formulation. After the first formulation dose, pharmacokinetic (PK) and safety assessments were obtained throughout Treatment Period A, and subjects completed a 20-day washout. Before dosing of the second formulation, subjects completed Baseline Period B assessments. Subjects then proceeded to Treatment Period B and received a single oral dose of the second formulation. Pharmacokinetic and safety assessments were obtained throughout Treatment Period B.
Blood samples for the determination of plasma concentrations of compound A were collected at the following times: Treatment Period A (Day 1 to Day 15): before and after dosing at 0.5 (30 minutes), 1, 1.5, 2, 3, 4, 5, 6, 8, 12, 24, 48, 72, 120, 168, 240, and 336 hours; Treatment Period B (Day 22 to Day 36): before and after dosing at 0.5 (30 minutes), 1, 1.5, 2, 3, 4, 5, 6, 8, 12, 24, 48, 72, 120, 168, 240, and 336 hours.
Plasma concentrations of compound A were measured using a validated liquid chromatography-tandem mass spectrometry (LC-MS/MS) assay.
Noncompartmental methods were used to calculate the following plasma PK parameters for compound A: area under the plasma concentration-time curve from time zero to 8 hours after dosing (AUC(0-8)), area under the plasma concentration-time curve from time zero to 72 hours after dosing (AUC(0-72)), area under the plasma concentration-time curve from time zero to time of the last quantifiable concentration (AUC(0-t)), area under the plasma concentration-time curve from time zero extrapolated to time infinity (AUC(0-inf)), maximum observed plasma drug concentration (Cmax), terminal elimination half-life (t1/2), absorption lag time (tlag), and time to reach the maximum (peak) plasma concentration after drug administration (tmax). The primary PK parameters were AUC(0-inf) and Cmax. The individual PK parameters of compound A were presented in the data listings by formulation (tablet or capsule) and dose (2.5, 10, or 25 mg). The PK parameters except tmax and tlag were summarized by formulation and dose using descriptive statistics: number of subjects, mean, SD, coefficient of variation, geometric mean, median, minimum, and maximum. The parameters tmax and tlag were summarized by formulation and dose using the following descriptive statistics: median, minimum, maximum, and the 90% confidence interval (CI) of the median point estimate. The natural log (In)-transformed PK parameters for compound A (AUC(0-inf), Cmax, AUC(0-8), AUC(0-72), and AUC(0-t)) were compared separately by dose with a mixed-effects model with sequence, treatment period, and formulation as fixed effects and subjects nested within sequence as a random effect. […]

[1] = across all dose levels (2.5, 10, 25 mg)
[2] = po, 2.5 mg, single oral 2.5 mg Capsule, healthy adults
[3] = po, 2.5 mg, single oral 2.5 mg Tablet, healthy adults
[4] = po, 10 mg, single oral 10 mg Capsule, healthy adults
[5] = po, 10 mg, single oral 10 mg Tablet, healthy adults
[6] = po, 25 mg, single oral 25 mg Capsule, healthy adults
[7] = po, 25 mg, single oral 25 mg Tablet, healthy adults

## Cc1ncc(OC[C@@]2(c3cccc(F)c3)C[C@H]2C(=O)Nc2ccc(F)cn2)c(C)n1 [Compound A, (1R,2 S)-2-(((2,4-dimethylpyrimidin-5-yl)oxy)methyl)-2-(3-fluorophenyl)-N-(5-fluoropyridin-2-yl) cyclopropanecarboxamide]
[1]
  Differences between formulations (tablet vs capsule) in AUC(0-8), AUC(0-72), AUC(0-t), AUC(0-inf): less than 13%
  Differences between tablet and capsule formulations in Cmax: less than 16%
Either formulation, any dose level
  absorption lag: no observed absorption lag
oral, tablet and capsule, across all dose levels, read-out: median tmax
  Tmax: 1 to 1.5 h
po, 2.5 mg, single oral 2.5 mg Capsule
  concentration at 8 h: 1.84 ng/mL
po, 2.5 mg, single oral 2.5 mg Tablet
  concentration at 8 h: 1.75 ng/mL
po, 2.5 mg, single oral 2.5 mg Capsule, healthy adults, read-out: AUC(0-8) Mean(SD)
  AUC(0-t): 45.5 ng·h/mL
po, 2.5 mg, single oral 2.5 mg Capsule, healthy adults, read-out: AUC(0-72) Mean(SD)
  AUC(0-t): 85.1 ng·h/mL
[2]
  AUC(0-inf): 103 ng·h/mL
  Cmax: 15.9 ng/mL
  half-life: 36.8 h
po, 2.5 mg, single oral 2.5 mg Capsule, healthy adults, read-out: AUC(0-t) Mean(SD)
  AUC(0-t): 94.9 ng·h/mL
po, 2.5 mg, single oral 2.5 mg Capsule, healthy adults, read-out: tmax (median)
  Tmax: 1 h
po, 2.5 mg, single oral 2.5 mg Tablet, healthy adults, read-out: AUC(0-8) Mean(SD)
  AUC(0-t): 47.1 ng·h/mL
po, 2.5 mg, single oral 2.5 mg Tablet, healthy adults, read-out: AUC(0-72) Mean(SD)
  AUC(0-t): 84.3 ng·h/mL
[3]
  AUC(0-inf): 101 ng·h/mL
  Cmax: 18 ng/mL
  half-life: 35.1 h
po, 2.5 mg, single oral 2.5 mg Tablet, healthy adults, read-out: AUC(0-t) Mean(SD)
  AUC(0-t): 93.2 ng·h/mL
po, 2.5 mg, single oral 2.5 mg Tablet, healthy adults, read-out: tmax (median)
  Tmax: 1 h
po, 10 mg, single oral 10 mg Capsule
  concentration at 8 h: 8.9 ng/mL
po, 10 mg, single oral 10 mg Tablet
  concentration at 8 h: 7.44 ng/mL
po, 10 mg, single oral 10 mg Capsule, healthy adults, read-out: AUC(0-8) Mean(SD)
  AUC(0-t): 164 ng·h/mL
po, 10 mg, single oral 10 mg Capsule, healthy adults, read-out: AUC(0-72) Mean(SD)
  AUC(0-t): 372 ng·h/mL
[4]
  AUC(0-inf): 531 ng·h/mL
  Cmax: 49 ng/mL
  half-life: 57 h
po, 10 mg, single oral 10 mg Capsule, healthy adults, read-out: AUC(0-t) Mean(SD)
  AUC(0-t): 511 ng·h/mL
po, 10 mg, single oral 10 mg Capsule, healthy adults, read-out: tmax (median)
  Tmax: 1.5 h
po, 10 mg, single oral 10 mg Tablet, healthy adults, read-out: AUC(0-8) Mean(SD)
  AUC(0-t): 178 ng·h/mL
po, 10 mg, single oral 10 mg Tablet, healthy adults, read-out: AUC(0-72) Mean(SD)
  AUC(0-t): 341 ng·h/mL
[5]
  AUC(0-inf): 472 ng·h/mL
  Cmax: 58.1 ng/mL
  half-life: 59.5 h
po, 10 mg, single oral 10 mg Tablet, healthy adults, read-out: AUC(0-t) Mean(SD)
  AUC(0-t): 455 ng·h/mL
po, 10 mg, single oral 10 mg Tablet, healthy adults, read-out: tmax (median)
  Tmax: 1 h
po, 25 mg, single oral 25 mg Capsule
  concentration at 8 h: 19.9 ng/mL
po, 25 mg, single oral 25 mg Tablet
  concentration at 8 h: 17.6 ng/mL
po, 25 mg, single oral 25 mg Capsule, healthy adults, read-out: AUC(0-8) Mean(SD)
  AUC(0-t): 358 ng·h/mL
po, 25 mg, single oral 25 mg Capsule, healthy adults, read-out: AUC(0-72) Mean(SD)
  AUC(0-t): 803 ng·h/mL
[6]
  AUC(0-inf): 1110 ng·h/mL
  Cmax: 105 ng/mL
  half-life: 57.4 h
po, 25 mg, single oral 25 mg Capsule, healthy adults, read-out: AUC(0-t) Mean(SD)
  AUC(0-t): 1080 ng·h/mL
po, 25 mg, single oral 25 mg Capsule, healthy adults, read-out: tmax (median)
  Tmax: 1.5 h
po, 25 mg, single oral 25 mg Tablet, healthy adults, read-out: AUC(0-8) Mean(SD)
  AUC(0-t): 386 ng·h/mL
po, 25 mg, single oral 25 mg Tablet, healthy adults, read-out: AUC(0-72) Mean(SD)
  AUC(0-t): 795 ng·h/mL
[7]
  AUC(0-inf): 1100 ng·h/mL
  Cmax: 120 ng/mL
  half-life: 57.6 h
po, 25 mg, single oral 25 mg Tablet, healthy adults, read-out: AUC(0-t) Mean(SD)
  AUC(0-t): 1070 ng·h/mL
po, 25 mg, single oral 25 mg Tablet, healthy adults, read-out: tmax (median)
  Tmax: 1 h
